Reference: patent US5587397A, “Reduction of elevated blood lactate using twice-daily dichloroacetate” (Cypros Pharmaceutical Corporation, priority 1995, dated 1996)
Entries after “also recorded” stand apart in the source; their conditions may differ. Read-outs that look alike come from different tables or passages of the source.

Columns and labels:
serum lactate = experiment: Serum/blood lactate concentration in human volunteers after intravenous DCA infusion; format: in vivo; details: for Serum lactate, baseline: before infusion; for Serum lactate, baseline / Serum lactate just before second infusion / Serum lactate 14 h after second infusion: mean ± SEM; for Serum lactate just before second infusion: second infusion 8 h later; for Level of statistical significance, (b) vs. placebo: just before second infusion; for Persistence of lactate reduction relative to DCA clearance: 60 mg/kg
Procedure: Eighteen human beings entered this study; all provided informed consent that was acceptable to an independent Institutional Review Board, which also approved the study design and toxicological coverage. The human subjects were all healthy, were fasted for 18 hours prior to the study infusions, and were all within 85% to 115% of ideal body weight, using actuarial tables published by the Metropolitan Life Insurance Company. Each received an accurately measured meal (late breakfast, 821 kcal total including 116 g of carbohydrate, 30 g of protein, and 32 g of fat).
(§1) Teflon venous catheters were placed in both forearms of all subjects. One, for drug administration, was left in place for 10 hours. The other, for blood sampling, was left in place for about 30 hours. Both venous cannulae were regularly flushed with a heparin-saline solution to avoid any risk of clogging or clotting. When blood was sampled, the first-drawn fluid was discarded, so that blood samples were not contaminated with the heparin-saline solution.
(§2) Sodium dichloroacetate (NaDCA; purchased in powdered form from TCI America, Inc., Portland, Oreg.) was dissolved in saline solution to provide a 10% sterile solution (i.e., 10 g of NaDCA in 100 ml solution) at a contract lab. The vials containing 10% solution were shipped to the study site, in Indiana, and then diluted to form approximately 2% solutions in intravenous drip bags. Exact concentrations depended to some extent on the weight of each patient; all concentrations were within 20 % of isotonic levels. A 2% solution was administered through one cannula into each test subject over a period of 30 minutes, at a dosage of 30 mg/kg (i.e, 30 milligrams of NaDCA salt per kilogram of body weight). The average total weight of NaDCA infused into each patient was about 2.26±0.54 g; total volume of solution was about 100 ml. […] Nine subjects received a single infusion of DCA, and nine received the saline placebo.
(§3) Samples of venous blood from the other cannula (in the opposite forearm) were taken, before and several times periodically after the intravenous infusion. The infusions were number-coded, and all solutions (both active and placebo) were colorless; therefore, this was a double-blinded study.
Blood samples were collected into tubes containing sodium heparin, and spun at 64 G (i.e., 64 times normal gravity) for 10 minutes, to remove blood cells. The supernatant was then deproteinized, using 6% perchloric acid; various other agents, such as acetonitrile, could alternately be used if desired. The deproteinized liquid was then centrifuged again at 64 G for 10 minutes, and the supernatant was decanted and divided into 0.20 mL aliquots. At least one aliquot was stored at -40° C. as a backup in case checks were needed, while tests were run on other aliquots.
Blood samples were assayed for lactate concentration at a registered clinical laboratory (SmithKline Beckman, in Evansville, Ind.), using a commercial assay kit sold by Sigma Chemical Company (St. Louis, Mo.). This assay uses an enzymatic procedure involving lactate dehydrogenase; it adds glycine to the samples as a buffer, along with a standardized excess amount of NAD. The lactate dehydrogenase enzyme converts lactate to pyruvate, and the hydrogen atoms that are liberated by this reaction convert NAD to reduced NAD (NADH). The NADH absorbs ultraviolet light at 340 nm, and the level of absorbance (measured by a spectrophotometer) is directly proportional to the amount of NADH in the sample, and thus to the amount of lactate that was initially present in the sample.
In a second set of test subjects (18 total: 9 test subjects and 9 saline placebo controls), sodium DCA was administered in an identical manner, using a single 30-minute infusion, at a dosage of 60 mg/kg. […]

[1] = dogs; Lukas et al 1980, Ribes et al 1979; cited from earlier work
[2] = especially over prolonged periods, Stacpoole et al 1979; cited from earlier work
[3] = Reported DCA pharmacokinetics in dogs (literature); format: in vivo, dog; details: dogs vs. 0.5 hour in humans
Source text: Accordingly, dogs cannot be used as reliable models or predictors for the pharmacokinetic effects of DCA in humans.

[4] = humans, cited from earlier work
[5] = tested on: pyruvate dehydrogenase enzyme complex; details: rats; Evans 1982; cited from earlier work
[6] = Reported DCA concentration and clearance in rats (literature); format: in vivo, rat; details: oral 100 mg/kg vs. human i.v.
Procedure: Evans et al 1981 administered DCA orally, in 100 mg/kg doses, either once, or daily for seven days.

[7] = Side effects of DCA infusion in healthy volunteers; format: in vivo, human; details: 100 mg/kg infused within 30 minutes
Procedure: Accordingly, to ensure that this effect would not occur when DCA was administered, an initial dose of 100 mg/kg NaDCA was infused into test subjects, and a second dose of 50 mg/kg was infused 8 hours later.
The dose of 100 mg/kg is the highest dose so far administered to human beings within 30 minutes. […] This was not considered clinically significant and needed no treatment; it would be relatively unimportant in most of the pathological states that are proper subjects for treatment using DCA. However, the sedation side effect was regarded as creating a practical limit (100 mg/kg infused in 30 minutes or less) for tests on healthy volunteers.

[8] = DCA clearance from the blood of human subjects after intravenous infusion; format: in vivo
Procedure: as §1, §2, §3
Blood samples were collected into tubes containing sodium heparin, and spun at 64 G (i.e., 64 times normal gravity) for 10 minutes, to remove blood cells. The supernatant was then deproteinized, using 6% perchloric acid; various other agents, such as acetonitrile, could alternately be used if desired. […]

[9] = cited from earlier work
[10] = 100 + 50 group, 14 h after second infusion

O=C([O-])C(Cl)Cl.[Na+] [DCA, sodium dichloroacetate]
Duration of blood lactate reduction (FIG. 3 legend) (serum lactate; 60 mg/kg as printed in legend): more than 8 hours | Persistence of reduction in serum lactate after the first infusion (serum lactate; 100 mg/kg followed by 50 mg/kg 8 hours later): more than 22 hours | Duration of lactate reduction (serum lactate; 100 mg/kg single i.v. infusion): > 8 h | Persistence of lactate reduction relative to serum DCA (serum lactate; 100 mg/kg single i.v. infusion, in words): persistent reduction in serum lactate levels which significantly outlasted the serum DCA concentrations | Serum lactate, baseline (serum lactate; 60 + 30 group (mg/kg)): 1.19 ± 0.24 mM | Serum lactate just before second infusion (serum lactate; 60 + 30 group (mg/kg)): 0.72 ± 0.15 mM | Serum lactate 14 h after second infusion (serum lactate; 60 + 30 group (mg/kg)): 0.94 ± 0.12 mM | Level of statistical significance, (c) vs. placebo (serum lactate; 60 + 30 group, 14 h after second infusion): 0.021 | Level of statistical significance, (b) vs. placebo (serum lactate; 60 + 30 group): 0.009 | Serum lactate, baseline (serum lactate; 100 + 50 group (mg/kg)): 0.84 ± 0.10 mM | Serum lactate just before second infusion (serum lactate; 100 + 50 group (mg/kg)): 0.39 ± 0.04 mM | Serum lactate 14 h after second infusion (serum lactate; 100 + 50 group (mg/kg)): 0.32 ± 0.08 mM | Level of statistical significance, (c) vs. 60 + 30 (serum lactate; [10]): 0.004 | Level of statistical significance, (c) vs. placebo (serum lactate; [10]): < 0.001 | Level of statistical significance, (b) vs. placebo (serum lactate; 100 + 50 group): < 0.001 | Time course of DCA concentration and lactate reduction (serum lactate; single 30 mg/kg i.v. infusion, in words, FIG. 1, 30 mg/kg): a peak of DCA concentration which rapidly dropped off, and a similar peak in lactate reduction which disappeared fairly rapidly; also recorded: closely paralleled (over time) the clearance of DCA from the blood | Duration of blood lactate reduction (serum lactate; single 30 mg/kg i.v. infusion, in words, 30 mg/kg): returned to normal levels within a few hours | Duration of blood lactate reduction (serum lactate; single 30 mg/kg i.v. infusion, in words, listed as NaDCA, 30 mg/kg): lasted only a few hours | Reversal of the decline in serum lactate levels (serum lactate; single 60 mg/kg i.v. infusion, at 6.5 hours and afterwards): no evidence of reversal of the decline in serum lactate levels | Persistence of lactate reduction relative to DCA clearance (serum lactate; single 60 mg/kg i.v. infusion, in words): significantly outlasted the persistence of serum DCA levels | Persistence of lactate reduction relative to DCA clearance (serum lactate; single 60 mg/kg i.v. infusion, in words, listed as NaDCA): lasted substantially longer and persisted even after substantially all of the DCA had been cleared from the patient's blood; also recorded: substantially outlasted the clearance of DCA from the circulation | Duration of reduction in plasma lactate after start of second infusion (serum lactate; two infusions eight hours apart): more than 12 hours | Duration of serum lactate reduction using two injections over 24 h (serum lactate; two injections, about 40 mg/kg DCA or more per injection): ≥ 24 h | Half-life [1]: 1140 to 1440 min | Toxic effects of oral administration [2]: may have toxic effects | Half-life in dogs relative to humans [3]: about 40 times longer | Half-life ([4]; Lukas et al 1980, Ribes et al 1979): 30 min | Half-life ([4]; Wells et al 1980): 31 min | Time to complete elimination ([4]; Wells et al 1980): ≤ 5 h | Clearance from circulating blood ([4]; in words): rapidly cleared | Activation of the pyruvate dehydrogenase enzyme complex over time [5]: dropped off rapidly with time | Inferred plasma concentration relative to that in human patients dosed intravenously [6]: about 1/10 | Duration of transient sedation or sleepiness [7]: about 20 minutes | Transient sedation or sleepiness [7]: a number of subjects reported transient sedation or sleepiness | Clearance rate of 30 mg/kg dose with vs. without prior DCA exposure ([8]; 30 mg/kg i.v., prior 60 mg/kg 8 hours earlier, FIG. 4): comparable | Clearance rate of 50 mg/kg dose after prior exposure vs. single 60 mg/kg dose ([8]; 50 mg/kg i.v., prior 100 mg/kg 8 hours earlier): similar | DCA clearance from blood ([8]; single 60 mg/kg i.v., by 6.5 hours): nearly all of the DCA had already been avidly cleared from the blood | Peak DCA concentration in liver tissue ([9]; oral 100 mg/kg, once or daily for seven days, Evans et al 1981): about 25 μg of DCA per gram of liver tissue | DCA concentration in the liver over time ([9]; rats, Evans 1982): declined rapidly with time | DCA clearance ([9]; rats, in words): fairly rapid
